Source: ChEMBL document CHEMBL1201861, “Genomics of Drug Sensitity in Cancer screening data, Wellcome Trust Sanger Institute”

Columns and labels:
Experiment in all cases: cells
[1] = test system: DoTc2-4510; type: functional, cell-based, Homo sapiens
[2] = test system: MDA-MB-453; type: functional, cell-based, Homo sapiens
Description: SANGER: Inhibition of human MDA-MB-453 cell growth in a cell viability assay.

[3] = test system: H4; type: functional, cell-based, Homo sapiens
Description: SANGER: Inhibition of human H4 cell growth in a cell viability assay.

[4] = test system: KYSE-180; type: functional, cell-based, Homo sapiens;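 also: growth inhibition of KYSE-180 cells, read out with a cell viability assay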
Description: SANGER: Inhibition of human KYSE-180 cell growth in a cell viability assay.

[5] = test system: SW1710; type: functional, cell-based, Homo sapiens;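 also: growth inhibition of SW1710 cells, determined with a cell viability assay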
Description: SANGER: Inhibition of human SW1710 cell growth in a cell viability assay.

[6] = test system: CAMA-1; type: functional, cell-based, Homo sapiens;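 also: growth inhibition of CAMA-1 cells, read out with a cell viability assay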
Description: SANGER: Inhibition of human CAMA-1 cell growth in a cell viability assay.

[7] = test system: SW48; type: functional, cell-based, Homo sapiens;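 also: growth inhibition of SW48 cells, read out with a cell viability assay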
Description: SANGER: Inhibition of human SW48 cell growth in a cell viability assay.

[8] = test system: NCI-H810; type: functional, cell-based, Homo sapiens;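 also: IC50 reflects inhibition of cancer cell line growth, read out with a cell viability assay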
Description: SANGER: Inhibition of human NCI-H810 cell growth in a cell viability assay.

[9] = test system: HTC-C3; type: functional, cell-based, Homo sapiens;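 also: inhibition of cell growth, read out with a cell viability assay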
Description: SANGER: Inhibition of human HTC-C3 cell growth in a cell viability assay.

[10] = test system: SK-MEL-24; type: functional, cell-based, Homo sapiens;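 also: growth inhibition read out by a cell viability assay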
Description: SANGER: Inhibition of human SK-MEL-24 cell growth in a cell viability assay.

[11] = test system: Capan-2; type: functional, cell-based, Homo sapiens;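 also: Capan-2 cell growth inhibition, read out with a viability assay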
Description: SANGER: Inhibition of human Capan-2 cell growth in a cell viability assay.

[12] = test system: G-401; type: functional, cell-based, Homo sapiens
Description: SANGER: Inhibition of human G-401 cell growth in a cell viability assay.

[13] = test system: DU-145; type: functional, cell-based, Homo sapiens
Description: SANGER: Inhibition of human DU-145 cell growth in a cell viability assay.

[14] = test system: SNU-387; type: functional, cell-based, Homo sapiens
Description: SANGER: Inhibition of human SNU-387 cell growth in a cell viability assay.

[15] = test system: SW1417; type: functional, cell-based, Homo sapiens;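 also: growth inhibition of human SW1417 cells, read out with a cell viability assay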
Description: SANGER: Inhibition of human SW1417 cell growth in a cell viability assay.

[16] = test system: SW1088; type: functional, cell-based, Homo sapiens;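 also: growth inhibition of human SW1088 cells, read out by a cell viability assay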
Description: SANGER: Inhibition of human SW1088 cell growth in a cell viability assay.

[17] = test system: CAL-62; type: functional, cell-based, Homo sapiens;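 also: growth inhibition of CAL-62 cells, read out with a cell viability assay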
Description: SANGER: Inhibition of human CAL-62 cell growth in a cell viability assay.

[18] = test system: HT55; type: functional, cell-based, Homo sapiens;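 also: cell viability readout measuring growth inhibition of human HT55 cells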
Description: SANGER: Inhibition of human HT55 cell growth in a cell viability assay.

[19] = test system: RCM-1; type: functional, cell-based, Homo sapiens;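 also: growth inhibition of the RCM-1 line, determined with a cell viability readout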
Description: SANGER: Inhibition of human RCM-1 cell growth in a cell viability assay.

[20] = test system: FTC-133; type: functional, cell-based, Homo sapiens
[21] = test system: C3A; type: functional, cell-based, Homo sapiens;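 also: growth inhibition of C3A human cells, quantified with a cell viability readout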
Description: SANGER: Inhibition of human C3A cell growth in a cell viability assay.

[22] = test system: NY; type: functional, cell-based, Homo sapiens
Description: SANGER: Inhibition of human NY cell growth in a cell viability assay.

[23] = test system: CaR-1; type: functional, cell-based, Homo sapiens;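 also: growth inhibition of human CaR-1 cancer cells, read out with a cell viability assay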
Description: SANGER: Inhibition of human CaR-1 cell growth in a cell viability assay.

[24] = test system: WM-115; type: functional, cell-based, Homo sapiens
Description: SANGER: Inhibition of human WM-115 cell growth in a cell viability assay.

[25] = test system: HT-1080; type: functional, cell-based, Homo sapiens
Description: SANGER: Inhibition of human HT-1080 cell growth in a cell viability assay.

[26] = test system: MDA-MB-175-VII; type: functional, cell-based, Homo sapiens
[27] = test system: VMRC-RCZ; type: functional, cell-based, Homo sapiens;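 also: growth inhibition measured with a cell viability assay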
Description: SANGER: Inhibition of human VMRC-RCZ cell growth in a cell viability assay.

[28] = test system: NCI-H2009; type: functional, cell-based, Homo sapiens;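 also: cell viability assay measuring inhibition of NCI-H2009 cell growth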
Description: SANGER: Inhibition of human NCI-H2009 cell growth in a cell viability assay.

[29] = test system: LU-99A; type: functional, cell-based, Homo sapiens;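 also: growth inhibition of LU-99A cells, read out with a cell viability assay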
Description: SANGER: Inhibition of human LU-99A cell growth in a cell viability assay.

[30] = test system: HT1197; type: functional, cell-based, Homo sapiens, HT-1197
Description: SANGER: Inhibition of human HT-1197 cell growth in a cell viability assay.

[31] = test system: Ca-Ski; type: functional, cell-based, Homo sapiens;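 also: cell viability assay measuring inhibition of Ca-Ski cell growth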
Description: SANGER: Inhibition of human Ca-Ski cell growth in a cell viability assay.

[32] = test system: HO-1-N-1; type: functional, cell-based, Homo sapiens;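 also: growth inhibition of human HO-1-N-1 cells, read out with a cell viability assay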
Description: SANGER: Inhibition of human HO-1-N-1 cell growth in a cell viability assay.

[33] = test system: BHT-101; type: functional, cell-based, Homo sapiens
Description: SANGER: Inhibition of human BHT-101 cell growth in a cell viability assay.

[34] = test system: A-375; type: functional, cell-based, Homo sapiens;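 also: growth inhibition of A375 cells, read out with a cell viability assay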
Description: SANGER: Inhibition of human A375 cell growth in a cell viability assay.

CO[C@H]1C[C@@H]2CC[C@@H](C)[C@@](O)(O2)C(=O)C(=O)N2CCCC[C@H]2C(=O)O[C@H]([C@H](C)C[C@@H]2CC[C@@H](OC(=O)C(C)(CO)CO)[C@H](OC)C2)CC(=O)[C@H](C)/C=C(\C)[C@@H](O)[C@@H](OC)C(=O)[C@H](C)C[C@H](C)/C=C/C=C/C=C/1C [TEMSIROLIMUS]
IC50 ([1]; Homo sapiens, DoTc2-4510): > 0.2 µM | IC50 ([2]; Homo sapiens, MDA-MB-453): > 0.2 µM | IC50 ([3]; Homo sapiens, H4): 0.00107 µM | IC50 ([4]; Homo sapiens, KYSE-180): > 0.2 µM | IC50 ([5]; Homo sapiens, SW1710): 0.189 µM | IC50 ([6]; Homo sapiens, CAMA-1): 0.00477 µM | IC50 ([7]; Homo sapiens, SW48): > 0.2 µM | IC50 ([8]; Homo sapiens, NCI-H810): > 0.2 µM | IC50 ([9]; Homo sapiens, HTC-C3): 0.0682 µM | IC50 ([10]; Homo sapiens, SK-MEL-24): 0.077 µM | IC50 ([11]; Homo sapiens, Capan-2): > 0.2 µM | IC50 ([12]; Homo sapiens, G-401): 0.089 µM | IC50 ([13]; Homo sapiens, DU-145): > 0.2 µM | IC50 ([14]; Homo sapiens, SNU-387): 0.175 µM | IC50 ([15]; Homo sapiens, SW1417): > 0.2 µM | IC50 ([16]; Homo sapiens, SW1088): 0.0318 µM | IC50 ([17]; Homo sapiens, CAL-62): 0.117 µM | IC50 ([18]; Homo sapiens, HT55): > 0.2 µM | IC50 ([19]; Homo sapiens, RCM-1): > 0.2 µM | IC50 ([20]; Homo sapiens, FTC-133): 0.0506 µM | IC50 ([21]; Homo sapiens, C3A): > 0.2 µM | IC50 ([22]; Homo sapiens, NY): > 0.2 µM | IC50 ([23]; Homo sapiens, CaR-1): > 0.2 µM | IC50 ([24]; Homo sapiens, WM-115): > 0.2 µM | IC50 ([25]; Homo sapiens, HT-1080): 0.0179 µM | IC50 ([26]; Homo sapiens, MDA-MB-175-VII): > 0.2 µM | IC50 ([27]; Homo sapiens, VMRC-RCZ): > 0.2 µM | IC50 ([28]; Homo sapiens, NCI-H2009): > 0.2 µM | IC50 ([29]; Homo sapiens, LU-99A): 0.125 µM | IC50 ([30]; Homo sapiens, HT1197): > 0.2 µM | IC50 ([31]; Homo sapiens, Ca-Ski): > 0.2 µM | IC50 ([32]; Homo sapiens, HO-1-N-1): 0.0082 µM | IC50 ([33]; Homo sapiens, BHT-101): 0.197 µM | IC50 ([34]; Homo sapiens, A-375): > 0.2 µM

CS(=O)(=O)c1ccc(C(=O)Nc2ccc(Cl)c(-c3ccccn3)c2)c(Cl)c1 [VISMODEGIB]
IC50 ([1]; Homo sapiens, DoTc2-4510): > 10 µM | IC50 ([2]; Homo sapiens, MDA-MB-453): > 10 µM | IC50 ([3]; Homo sapiens, H4): > 10 µM | IC50 ([4]; Homo sapiens, KYSE-180): > 10 µM | IC50 ([5]; Homo sapiens, SW1710): > 10 µM | IC50 ([6]; Homo sapiens, CAMA-1): > 10 µM | IC50 ([7]; Homo sapiens, SW48): > 10 µM | IC50 ([8]; Homo sapiens, NCI-H810): > 10 µM | IC50 ([9]; Homo sapiens, HTC-C3): > 10 µM | IC50 ([10]; Homo sapiens, SK-MEL-24): > 10 µM | IC50 ([11]; Homo sapiens, Capan-2): > 10 µM | IC50 ([12]; Homo sapiens, G-401): > 10 µM | IC50 ([13]; Homo sapiens, DU-145): > 10 µM | IC50 ([14]; Homo sapiens, SNU-387): > 10 µM | IC50 ([15]; Homo sapiens, SW1417): > 10 µM | IC50 ([16]; Homo sapiens, SW1088): > 10 µM | IC50 ([17]; Homo sapiens, CAL-62): > 10 µM | IC50 ([18]; Homo sapiens, HT55): > 10 µM | IC50 ([19]; Homo sapiens, RCM-1): > 10 µM | IC50 ([20]; Homo sapiens, FTC-133): > 10 µM | IC50 ([21]; Homo sapiens, C3A): > 10 µM | IC50 ([22]; Homo sapiens, NY): > 10 µM | IC50 ([23]; Homo sapiens, CaR-1): > 10 µM | IC50 ([24]; Homo sapiens, WM-115): > 10 µM | IC50 ([25]; Homo sapiens, HT-1080): > 10 µM | IC50 ([26]; Homo sapiens, MDA-MB-175-VII): > 10 µM | IC50 ([27]; Homo sapiens, VMRC-RCZ): > 10 µM | IC50 ([28]; Homo sapiens, NCI-H2009): > 10 µM | IC50 ([29]; Homo sapiens, LU-99A): > 10 µM | IC50 ([30]; Homo sapiens, HT1197): > 10 µM | IC50 ([31]; Homo sapiens, Ca-Ski): > 10 µM | IC50 ([32]; Homo sapiens, HO-1-N-1): > 10 µM | IC50 ([33]; Homo sapiens, BHT-101): > 10 µM | IC50 ([34]; Homo sapiens, A-375): > 10 µM

CISPLATIN
IC50 ([1]; dotc2-4510): 63.6 µM | IC50 ([2]; mda-mb-453): 25.8 µM | IC50 ([3]; h4): 4.71 µM | IC50 ([4]; kyse-180): 5.82 µM | IC50 ([5]; sw1710): 44.4 µM | IC50 ([6]; cama-1): 117 µM | IC50 ([7]; sw48): 9.22 µM | IC50 ([8]; nci-h810): 273 µM | IC50 ([9]; htc-c3): 4.49 µM | IC50 ([10]; sk-mel-24): 43.7 µM | IC50 ([11]; capan-2): 243 µM | IC50 ([12]; g-401): 7.25 µM | IC50 ([13]; du-145): 11.1 µM | IC50 ([14]; snu-387): 26.1 µM | IC50 ([15]; sw1417): 194 µM | IC50 ([16]; sw1088): 9.7 µM | IC50 ([17]; cal-62): 301 µM | IC50 ([18]; ht55): 118 µM | IC50 ([19]; rcm-1): 123 µM | IC50 ([20]; ftc-133): 4.77 µM | IC50 ([21]; c3a): 407 µM | IC50 ([22]; ny): 28.2 µM | IC50 ([23]; car-1): 755 µM | IC50 ([24]; wm-115): 33.4 µM | IC50 ([25]; ht-1080): 23.9 µM | IC50 ([26]; mda-mb-175-vii): 69.7 µM | IC50 ([27]; vmrc-rcz): 298 µM | IC50 ([28]; nci-h2009): 496 µM | IC50 ([29]; lu-99a): 4.29 µM | IC50 ([30]; ht-1197): 13.3 µM | IC50 ([31]; ca-ski): 10.3 µM | IC50 ([32]; ho-1-n-1): 39.4 µM | IC50 ([33]; bht-101): 5.82 µM | IC50 ([34]; a-375): 535 µM
